Measurements as given in US20240335575A1, “METHOD AND APPARATUS FOR INACTIVATING PATHOGENS IN UNITS OF WHOLE BLOOD USING SUPERPARAMAGNETIC NANOPARTICLES COATED WITH CHEMILUMINESCENCE REAGENTS AND BROAD-SPECTRUM ANTI-VIRAL THERAPEUTICS” (Aphios Corporation, priority 2021, published 2024).

Legend:
[1] = tested on: BVDV; test: BVDV inactivation in spiked RBCC by doxorubicin alone; assay type: cell-based, Bovine Viral Diarrhea Virus; details: for Unwashed Titer / Washed Titer: 37° C. 2 hours in the dark; for Unwashed Titer: doxorubicin Low = 0.53 mM, High = 1.6 mM; for Combined VRF: treatment plus washing, compared to mean unwashed RBC controls; for Unwashed VRF: compared to mean titer of untreated RBC controls; for Washed VRF: compared to mean titer of washed untreated RBC controls
Procedure: Two levels of doxorubicin (low and high), RBCC, virus and DMEM (—Ca^++, —Mg^++) were prepared to all contain equivalent titers of BVDV calculated to be 6.23 log10 TCID50/mL (logs) based on the titer of the original virus stock.
The components were mixed and incubated at 37° C. for 2 hours in the dark followed by titration of unwashed and washed samples as previously described. Washing rows of wells with dilutions 1 and 2 was performed the next day. Final CPE were read 2 weeks post-infection. Cells were also monitored for cytotoxicity from the treatment components other than the virus 1 day and 2 weeks post-infection as in previous experiments.
The various combinations tested, the titers obtained and the calculated VRFs compared to the mean titer of the untreated RBC controls are listed in Table 4. There was no hemolysis or clumping for any of the samples at the end of the treatment period.

[2] = tested on: Human Adenovirus-2 (HAd-2); test: Earlier inactivation of HAd-2 in unwashed RBCC samples; assay type: cell-based; details: doxorubicin alone, observed previously
[3] = tested on: BVDV; test: BVDV inactivation in spiked human RBCC by hypericin with luciferase system; assay type: cell-based, Bovine Viral Diarrhea Virus; details: for Unwashed Titer / Washed Titer: RT 2 hours in the dark; for Unwashed Titer / Unwashed VRF: unwashed samples; for Unwashed Titer: doses per sample label; for Washed Titer / Washed VRF: washed samples; for Combined VRF: treatment plus washing, compared to unwashed untreated RBC control; for Unwashed VRF: compared to titer of untreated RBC control; for Washed VRF: compared to washed untreated RBC control
Procedure: Ten different combinations of DMEM (—Ca^++, —Mg^++), RBCC, virus, hypericin, Luciferin, ATP and luciferase were prepared to all contain equivalent titers of BVDV calculated to be 6.48 log10TCID50/mL based on the titer of the original virus stock. The concentrations of hypericin tested were 0, 40 and 200 μg/mL. Luciferase was tested at 0, 0.8 and 4.0 μM. Luciferin and ATP were present at 80 and 800 μM respectively when luciferase was present and absent in the absence of luciferase.
The components were mixed and incubated at RT for 2 hours in the dark followed by titration of unwashed and washed samples as previously described. Washing rows of wells with dilutions 1 and 2 was performed 3 days post-infection. Final CPEs were read 10 days post-infection.
The various combinations tested, the titers obtained and the calculated VRFs compared to the titer of the untreated RBC control are listed in Table 2.

[4] = tested on: RBC; test: Cytotoxicity, interference, RBC morphology and integrity after hypericin treatment; assay type: cell-based
Procedure: Cytotoxicity and interference studies are performed per CPMP/FDA guidelines to calculate the reduction in viral titers due to these factors and exclude them from the calculated reduction factors resulting from the antiviral treatment. The antiviral compounds are removed from the system by washing the erythrocytes. Appropriate controls are kept to determine the contribution of washing to the viral reduction factors.

Row | SMILES | Unwashed Titer [1] | Washed Titer [1] | Combined VRF [1] | Unwashed VRF [1] | Washed VRF [1] | Unwashed Titer [3] | Washed Titer [3] | Combined VRF [3] | Unwashed VRF [3] | Washed VRF [3] | also measured
1 | COc1cccc2c1C(=O)c1c(O)c3c(c(O)c1C2=O)C[C@@](O)(C(=O)CO)C[C@@H]3O[C@H]1C[C@H](N)[C@H](O)[C@H](C)O1 [Dox-H, Doxorubicin] | 3.10 log10 TCID50/mL | 3.10 log10 TCID50/mL | 2.50 logs | 2.50 logs | −0.19 logs |  |  |  |  |  | 
2 | COc1cccc2c1C(=O)c1c(O)c3c(c(O)c1C2=O)C[C@@](O)(C(=O)CO)C[C@@H]3O[C@H]1C[C@H](N)[C@H](O)[C@H](C)O1 [Dox-L, Doxorubicin] | 3.23 log10 TCID50/mL | 3.10 log10 TCID50/mL | 2.50 logs | 2.38 logs | −0.19 logs |  |  |  |  |  | 
3 | COc1cccc2c1C(=O)c1c(O)c3c(c(O)c1C2=O)C[C@@](O)(C(=O)CO)C[C@@H]3O[C@H]1C[C@H](N)[C@H](O)[C@H](C)O1 [Doxorubicin, (1S,3S)-3-glycoloyl-3,5,12-trihydroxy-10-methoxy-6,11-dioxo-1,2,3,4,6,11-hexahydrotetracen-1-yl 3-amino-2,3,6-trideoxy-α-L-lyxo-hexo-pyranoside] |  |  |  |  |  |  |  |  |  |  | viral inactivation activity against BVDV ([1]; doxorubicin treatment alone): has viral inactivation activity; viral inactivation activity against HAd-2 virus [2]: has viral inactivation activity
4 | Cc1cc(O)c2c(=O)c3c(O)cc(O)c4c5c(O)cc(O)c6c(=O)c7c(O)cc(C)c8c1c2c(c34)c(c78)c65 [HH-LN, Hypericin] |  |  |  |  |  | 3.10 log10TCID50/mL | 2.48 log10TCID50/mL | 3.87 logs | 3.25 logs | 1.50 logs | 
5 | Cc1cc(O)c2c(=O)c3c(O)cc(O)c4c5c(O)cc(O)c6c(=O)c7c(O)cc(C)c8c1c2c(c34)c(c78)c65 [HL-LN, Hypericin] |  |  |  |  |  | 3.48 log10TCID50/mL | <2.34 log10TCID50/mL | >4.01 logs | 2.87 logs | >1.64 logs | 
6 | Cc1cc(O)c2c(=O)c3c(O)cc(O)c4c5c(O)cc(O)c6c(=O)c7c(O)cc(C)c8c1c2c(c34)c(c78)c65 [Hypericin] |  |  |  |  |  |  |  |  |  |  | impact on cytotoxicity, interference, RBC morphology and integrity ([4]; hypericin 40 μg/mL with CDP-Star 0.1 mM): very little impact; impact on cytotoxicity, interference, RBC morphology and integrity ([4]; hypericin 40 μg/mL with luciferase 0.16 μM): very little impact
